Source: ChEMBL document CHEMBL5726785, “TrkA kinase inhibitors, compositions and methods thereof” (2018)

Target: High affinity nerve growth factor receptor (Homo sapiens, UniProt P04629)
Experiment: TrkA Receptor : TrkA functional activity was measured using a DiscoverX PathHunter assay. In this assay, U2OS cells are express TrkA receptor as a fusion with the weakly complementing fragment of B-galactosidase, which DiscoverX calls “Prolink (PK)”; additionally, Shc1 is fused with a larger fragment, which is called “Enzyme Acceptor (EA)”. Activation of the TrkA receptor, upon NGF addition, results in the kinase domain being phosphorylated, resulting in subsequent recruitment of Shc1-EA protein. That recruitment results in an active B-galactosidase enzyme that is detected by addition of a chemiluminescent substrate.All reagents were purchased from DiscoverX, except for the receptor agonists (NGF, BDNF, NT3) which were purchased from Peprotech. Cells were expanded and frozen into cryovials (TrkA p75 @ passage 13, 1.5×10^7 cells/vial; TrkC p75 @ passage 11, 1.5×10^7 cells/vial in InVitrogen Recovery Cell Freezing media), and stored in the vapor phase of liquid nitrogen, and thawed immediately before use. Thawed cells were added to a 384-well plate (BD Falcon 384-well white/clear, TC surface 120 uL assay plates (353963), 20 uL of 0.375e6 cells/mL=>7500 cells/well), and allowed to incubate overnight. […]

Sequence of High affinity nerve growth factor receptor (P04629 whole entry, the tested form may be a part): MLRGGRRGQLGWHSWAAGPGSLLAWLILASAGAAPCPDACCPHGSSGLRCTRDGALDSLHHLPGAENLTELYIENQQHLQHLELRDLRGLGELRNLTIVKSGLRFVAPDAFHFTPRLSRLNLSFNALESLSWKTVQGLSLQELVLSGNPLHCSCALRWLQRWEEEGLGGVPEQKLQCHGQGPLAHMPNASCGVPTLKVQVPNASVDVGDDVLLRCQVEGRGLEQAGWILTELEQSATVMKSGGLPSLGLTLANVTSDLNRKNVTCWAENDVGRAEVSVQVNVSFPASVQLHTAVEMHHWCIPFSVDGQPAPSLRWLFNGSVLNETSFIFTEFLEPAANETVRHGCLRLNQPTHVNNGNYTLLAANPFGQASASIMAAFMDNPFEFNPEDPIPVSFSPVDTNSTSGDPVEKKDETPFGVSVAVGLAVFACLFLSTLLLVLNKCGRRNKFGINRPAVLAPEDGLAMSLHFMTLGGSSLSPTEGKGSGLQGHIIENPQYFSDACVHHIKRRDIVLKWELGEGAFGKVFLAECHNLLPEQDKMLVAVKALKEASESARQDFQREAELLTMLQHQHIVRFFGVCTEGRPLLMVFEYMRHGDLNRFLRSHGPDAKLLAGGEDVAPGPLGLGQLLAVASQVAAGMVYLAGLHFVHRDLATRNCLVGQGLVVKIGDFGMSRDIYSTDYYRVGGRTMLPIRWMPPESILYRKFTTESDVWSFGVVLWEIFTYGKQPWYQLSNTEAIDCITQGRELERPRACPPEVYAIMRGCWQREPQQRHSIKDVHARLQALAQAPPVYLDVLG

IC50: 570 nM
SMILES: Cc1ncc(NC(=O)Nc2c(-c3ccccc3)[nH]c3ccccc23)c(-c2ccccc2)n1
